{
  "source": "patent US7217776B1",
  "about": "“pH-sensitive methacrylic copolymer gels and the production thereof” (Iowa State University Research Foundation, priority 2003, dated 2007)",
  "tested_on": "NIH/3T3 mouse fibroblasts",
  "assay": "Cytotoxicity elution test",
  "assay_type": "cell-based",
  "conditions": "24 hours incubation; 3 mg/L, 0.3 mg/L and 0.03 mg/L",
  "method": "Elution tests were performed on one sample of the pentablock material to assess the cytotoxic properties of the pentablock copolymers. Approximately 30 mg of the polymers to be tested were dissolved in 100 ml of low-glucose Dulbecco's modified eagle medium (DMEM, Sigma) with 10% fetal bovine serum (FBS, Sigma), 10 μg/ml insulin (Sigma), 10 units/ml penicillin/streptomycin (Sigma), and 100 μg/ml L-ascorbic acid (Sigma). This solution was diluted to achieve the desired polymer concentration for all tests.\nNIH/3T3 mouse fibroblasts were grown in polystyrene flasks until reaching confluence at 150 cells/mm. The growth media was removed from the flasks and replaced with one of the following: DMEM (negative control), DMEM with phenol (positive control), DMEM with the pentablock material. The concentrations of the pentablock material and phenol were 3 mg/L, 0.3 mg/L and 0.03 mg/L.\nAfter 24 hours of incubation in a humidified incubator with 5% CO2 at 37° C. the samples were removed and the media was replaced with Kamovsky's fixative (2.5% glutaraldehyde, 2.0% paraformaldehyde, 0.1M sodium cacodylate) for 12 hours. The samples were then stained with a 20% crystal violet dye (CVD) solution in ethanol for 6 hours followed by dehydration with ethanol. […]",
  "data": [
    {"smiles": "Oc1ccccc1", "note": "[phenol]", "values": [
      {"measurement": "cytotoxic response (cell density, morphology, adherence relative to controls)", "value": "result expected for a cytotoxic material"}
    ]}
  ]
}
